Experimental data as given in ChEMBL document CHEMBL1121624, “Synthesis, biological evaluation, and preliminary structure-activity considerations of a series of alkylphenols as intravenous anesthetic agents” (J Med Chem, 1980).

How the values were obtained:
[1] = Acute toxicity measured as median lethal dose in mice; assay type: organism-based; details: mouse, in vivo
Mus musculus [2] = species on record: Mus musculus; test: Speed of induction of analgesia in mice was determined; VS = very slow, > 15s; assay type: functional, organism-based
Mus musculus [3] = species on record: Mus musculus; test: Hypnotic activity was measured as dose which causes loss of righting reflex for a minimum period of 30s in 50% of mice; Range is 20-40; assay type: functional
Mus musculus [4] = species on record: Mus musculus; test: Duration of analgesic action in mice was determined; B = brief, < 5 min; assay type: functional, organism-based
[5] = Acute toxicity measured as median lethal dose in mice; Range is 160-180; assay type: organism-based; details: mouse, in vivo
Mus musculus [6] = species on record: Mus musculus; test: Hypnotic activity was measured as dose which causes loss of righting reflex for a minimum period of 30s in 50% of mice; assay type: functional
Mus musculus [7] = species on record: Mus musculus; test: Speed of induction of analgesia in mice was determined; S = slow, 10-15 s; assay type: functional, organism-based
Mus musculus [8] = species on record: Mus musculus; test: Duration of analgesic action in mice was determined; L = long, >10; assay type: functional, organism-based
Mus musculus [9] = species on record: Mus musculus; test: Hypnotic activity was measured as dose which causes loss of righting reflex for a minimum period of 30s in 50% of mice; Range is 10-15; assay type: functional
Mus musculus [10] = species on record: Mus musculus; test: Hypnotic activity was measured as dose which causes loss of righting reflex for a minimum period of 30s in 50% of mice; Range is 15-20; assay type: functional
[11] = Acute toxicity measured as median lethal dose in mice; Range is 60-80; assay type: organism-based; details: mouse, in vivo
Mus musculus [12] = species on record: Mus musculus; test: Speed of induction of analgesia in mice was determined; I = immediate, <10 s; assay type: functional, organism-based
Mus musculus [13] = species on record: Mus musculus; test: Hypnotic activity was measured as dose which causes loss of righting reflex for a minimum period of 30s in 50% of mice; Range is 40-60; assay type: functional
[14] = Acute toxicity measured as median lethal dose in mice; Range is 120-140; assay type: organism-based; details: mouse, in vivo
Mus musculus [15] = species on record: Mus musculus; test: Hypnotic activity was measured as dose which causes loss of righting reflex for a minimum period of 30s in 50% of mice; Range is 30-40; assay type: functional
[16] = Acute toxicity measured as median lethal dose in mice; Range is 40-60; assay type: organism-based; details: mouse, in vivo
[17] = Acute toxicity measured as median lethal dose in mice; Range is 100-120; assay type: organism-based; details: mouse, in vivo
[18] = Acute toxicity measured as median lethal dose in mice; Range is 80-100; assay type: organism-based; details: mouse, in vivo
[19] = Acute toxicity measured as median lethal dose in mice; Range is 40-45; assay type: organism-based; details: mouse, in vivo
Mus musculus [20] = species on record: Mus musculus; test: Hypnotic activity was measured as dose which causes loss of righting reflex for a minimum period of 30s in 50% of mice; Range is 1-1.5; assay type: functional
Mus musculus [21] = species on record: Mus musculus; test: Duration of analgesic action in mice was determined; M = moderate, 5-10 min; assay type: functional, organism-based
Mus musculus [22] = species on record: Mus musculus; test: Hypnotic activity was measured as dose which causes loss of righting reflex for a minimum period of 30s in 50% of mice; Range is 5-10; assay type: functional
Mus musculus [23] = species on record: Mus musculus; test: Hypnotic activity was measured as dose which causes loss of righting reflex for a minimum period of 30s in 50% of mice; Range is 20-30; assay type: functional
Mus musculus [24] = species on record: Mus musculus; test: Hypnotic activity was measured as dose which causes loss of righting reflex for a minimum period of 30s in 50% of mice; Range is 60-80; assay type: functional
in vivo = details: mouse

For CCCc1cccc(CC)c1O, the LD50 [1] was 100 mg/kg, the Speed of induction (Mus musculus [2]) was “Very slow” and the HD50 (Mus musculus [3]) was 20 mg/kg. The Duration of action (Mus musculus [4]) was “Brief duration”.

Molecule Cc1cc(C)c(C(C)C)c(O)c1C(C)C has an LD50 [5] of 160 mg/kg and an HD50 (Mus musculus [6]) of 120 mg/kg.

With CCCC(C)c1cccc(C(C)C)c1O (stereo not drawn) the Speed of induction (Mus musculus [7]) was “Slow”, the LD50 [1] was 80 mg/kg and the Duration of action (Mus musculus [8]) was “Long”. For the same molecule, the HD50 (Mus musculus [9]) was 10 mg/kg.

In the case of CCc1cccc(C(C)C)c1O, the HD50 (Mus musculus [10]) is reported as 15 mg/kg, the LD50 [11] is reported as 60 mg/kg and the Speed of induction (Mus musculus [12]) is reported as “Immediate”. The Duration of action (Mus musculus [4]) was “Brief duration”.

CCc1ccc(O)c(C(C)C)c1 gave an LD50 [1] of 120 mg/kg and an HD50 (Mus musculus [6]) of 40 mg/kg.

For Cc1cccc(C(C)(C)C)c1O, the HD50 (Mus musculus [13]) was 40 mg/kg, the Speed of induction (Mus musculus [12]) was “Immediate induction” and the Duration of action (Mus musculus [4]) was “Brief duration”. For the same molecule, the LD50 [14] was 120 mg/kg.

For CCCC(C)C1(CC)C(=O)NC(=S)NC1=O (stereo in doubt; form 1), the Speed of induction (Mus musculus [12]) was “Immediate” and the Duration of action (Mus musculus [4]) was “Brief duration”.

CC(C)c1ccc(O)cc1 gave an HD50 (Mus musculus [15]) of 30 mg/kg and an LD50 [16] of 40 mg/kg.

With CCCCC(C)c1cccc(C(C)C)c1O (stereo not drawn) the Speed of induction (Mus musculus [7]) was “Slow”, the Duration of action (Mus musculus [8]) was “Long” and the LD50 [17] was 100 mg/kg. It also gave an HD50 (Mus musculus [9]) of 10 mg/kg.

In the case of CNC1(c2ccccc2Cl)CCCCC1=O.Cl (stereo not drawn) [KETAMINE HYDROCHLORIDE], the Speed of induction (Mus musculus [7]) is reported as “Slow”, the LD50 [1] is reported as 60 mg/kg and the Duration of action (Mus musculus [4]) is reported as “Brief duration”. It also gave an HD50 (Mus musculus [9]) of 10 mg/kg.

With Cc1cc(C(C)C)c(O)c(C(C)C)c1 the LD50 [18] was 80 mg/kg and the HD50 (Mus musculus [6]) was 20 mg/kg.

In the case of CCC(C)c1cc(C)cc(C(C)CC)c1O (stereo not drawn), the LD50 [1] is reported as 140 mg/kg and the HD50 (Mus musculus [6]) is reported as 30 mg/kg.

Work on CCC(C)c1ccccc1O (stereo not drawn) yielded an HD50 (Mus musculus [15]) of 30 mg/kg.

In the case of Cc1c(C(C)C)ccc(C(C)C)c1O, the LD50 [1] is reported as 100 mg/kg and the HD50 (Mus musculus [6]) is reported as 20 mg/kg.

In the case of CCOC(=O)c1cncn1[C@H](C)c1ccccc1 [ETOMIDATE], the LD50 [19] is reported as 40 mg/kg, the HD50 (Mus musculus [20]) is reported as 1 mg/kg and the Speed of induction (Mus musculus [12]) is reported as “Immediate induction”. The Duration of action (Mus musculus [4]) was “Brief duration”.

For CCC(C)c1cccc(C(C)CC)c1O (stereo not drawn), the Speed of induction (Mus musculus [7]) was “Slow”, the Duration of action (Mus musculus [21]) was “Moderate” and the HD50 (Mus musculus [22]) was 5 mg/kg. It also gave an LD50 [1] of 60 mg/kg.

In the case of Cc1cccc(C(C)C)c1O, the LD50 [1] is reported as 80 mg/kg, the Speed of induction (Mus musculus [12]) is reported as “Immediate” and the Duration of action (Mus musculus [4]) is reported as “Brief duration”. It also gave an HD50 (Mus musculus [23]) of 20 mg/kg.

Work on CCCC(C)c1ccccc1O (stereo not drawn) yielded an LD50 [1] of 100 mg/kg and an HD50 (Mus musculus [23]) of 20 mg/kg.

Cc1ccc(C(C)C)cc1O [CARVACROL] gave an LD50 [18] of 80 mg/kg and an HD50 (Mus musculus [15]) of 30 mg/kg.

In the case of CCCC(C)c1cccc(C(C)CCC)c1O (stereo not drawn), the HD50 (Mus musculus [10]) is reported as 15 mg/kg, the Speed of induction (Mus musculus [2]) is reported as “Very slow” and the Duration of action (Mus musculus [8]) is reported as “Long”. It also gave an LD50 [5] of 160 mg/kg.

CCc1c(C)cc(C)c(CC)c1O showed an HD50 (Mus musculus [24]) of 60 mg/kg and an LD50 [1] of 160 mg/kg.

In the case of CC(C)c1cccc(C(C)C)c1O [PROPOFOL], the LD50 (in vivo) is reported as 50 mg/kg, the HD50 (Mus musculus [22]) is reported as 5 mg/kg and the Speed of induction (Mus musculus [12]) is reported as “Immediate induction”. For the same molecule, the Duration of action (Mus musculus [4]) was “Brief duration”.

Work on CCC(C)c1ccc(O)c(C(C)CC)c1 (stereo not drawn) yielded an LD50 [1] of 120 mg/kg and an HD50 (Mus musculus [23]) of 20 mg/kg.

For CCC(C)c1cccc(C2CC2)c1O (stereo not drawn), the Speed of induction (Mus musculus [7]) was “Slow”, the HD50 (Mus musculus [3]) was 20 mg/kg and the Duration of action (Mus musculus [4]) was “Brief duration”. For the same molecule, the LD50 [14] was 120 mg/kg.

For CCCCCC(C)c1cccc(C)c1O (stereo not drawn), the HD50 (Mus musculus [10]) was 15 mg/kg, the LD50 [1] was 100 mg/kg and the Speed of induction (Mus musculus [2]) was “Very slow”. The Duration of action (Mus musculus [8]) was “Long”.

CCc1cc(C(C)C)c(O)c(C(C)C)c1 gave an LD50 [18] of 80 mg/kg and an HD50 (Mus musculus [6]) of 20 mg/kg.

With CCc1cccc(C(C)CC)c1O (stereo not drawn) the LD50 [1] was 80 mg/kg, the Speed of induction (Mus musculus [12]) was “Immediate” and the Duration of action (Mus musculus [4]) was “Brief duration”. It also gave an HD50 (Mus musculus [9]) of 10 mg/kg.

For CCCCc1c(C)ccc(C(C)C)c1O, the LD50 [1] was 150 mg/kg and the HD50 (Mus musculus [6]) was 50 mg/kg.
